ChEMBL document CHEMBL1201862, “PubChem BioAssay data set” (2004)
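Five compound concentrations were applied to cells in 96-well plates for 48 hours; endpoints were derived by simple linear interpolation of the resulting dose-response curve. GI50 = concentration required for 50% inhibition of growth.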 Active and inactive are the calls of the source. No stated cut-off is given here; in the data, active = GI50 up to about 1.1 µM and inactive = higher.

Tests used:
Experiment in all cases: NCI anticancer screen, dose series, 48 h
EKVX = system: EKVX
MDA-N = system: MDA-N
MOLT-4 = system: MOLT-4
NCI-H226 = system: NCI-H226
HCC 2998 = system: HCC 2998
A498 = system: A498
OVCAR-4 = system: OVCAR-4
SK-OV-3 = system: SK-OV-3
CCRF-CEM = system: CCRF-CEM
K562 = system: K562
CAKI-1 = system: CAKI-1
OVCAR-8 = system: OVCAR-8
SF-268 = system: SF-268
LOX IMVI = system: LOX IMVI
RPMI-8226 = system: RPMI-8226
SK-MEL-5 = system: SK-MEL-5
Malme-3M = system: Malme-3M
HOP-62 = system: HOP-62
SK-MEL-28 = system: SK-MEL-28
MDA-MB-231 = system: MDA-MB-231
NCI/ADR-RES = system: NCI/ADR-RES
RXF 393 = system: RXF 393
UACC-257 = system: UACC-257
COLO 205 = system: COLO 205
TK-10 = system: TK-10
U-251 = system: U-251
HCT-116 = system: HCT-116
UACC-62 = system: UACC-62
NCI-H460 = system: NCI-H460
SNB-19 = system: SNB-19
OVCAR-3 = system: OVCAR-3
T47D = system: T47D
Hs-578T = system: Hs-578T
NCI-H23 = system: NCI-H23
ACHN = system: ACHN
SK-MEL-2 = system: SK-MEL-2
A549 = system: A549
MDA-MB-435 = system: MDA-MB-435
SNB-75 = system: SNB-75
SN12C = system: SN12C
HT-29 = system: HT-29
HL-60 = system: HL-60
786-0 = system: 786-0
HOP-92 = system: HOP-92
HCT-15 = system: HCT-15
SW-620 = system: SW-620
M14 = system: M14
DU-145 = system: DU-145
IGROV-1 = system: IGROV-1
KM12 = system: KM12
SF-295 = system: SF-295
NCI-H522 = system: NCI-H522
SR = system: SR
UO-31 = system: UO-31
SF-539 = system: SF-539
MCF7 = system: MCF7
PC-3 = system: PC-3
OVCAR-5 = system: OVCAR-5

CCOP(=O)(OCC)C(Nc1ccc(Cl)cc1)c1ccc(F)cc1 (stereo unspecified)
GI50 (EKVX): 29.2 µM (inactive) | GI50 (MDA-N): 19.9 µM (inactive) | GI50 (MOLT-4): 23.1 µM (inactive) | GI50 (NCI-H226): 25.8 µM (inactive) | GI50 (HCC 2998): 22 µM (inactive) | GI50 (A498): 18.5 µM (inactive) | GI50 (OVCAR-4): 36.2 µM (inactive) | GI50 (SK-OV-3): 41.7 µM (inactive) | GI50 (CCRF-CEM): 29.5 µM (inactive) | GI50 (K562): 25.5 µM (inactive) | GI50 (CAKI-1): 22.3 µM (inactive) | GI50 (OVCAR-8): 28.8 µM (inactive) | GI50 (SF-268): 20.1 µM (inactive) | GI50 (LOX IMVI): 15.7 µM (inactive) | GI50 (RPMI-8226): 22.5 µM (inactive) | GI50 (SK-MEL-5): 17.3 µM (inactive) | GI50 (Malme-3M): 19.1 µM (inactive) | GI50 (HOP-62): 19 µM (inactive) | GI50 (SK-MEL-28): 18.4 µM (inactive) | GI50 (MDA-MB-231): 21.2 µM (inactive) | GI50 (NCI/ADR-RES): 22.8 µM (inactive) | GI50 (RXF 393): 21.2 µM (inactive) | GI50 (UACC-257): 18.5 µM (inactive) | GI50 (COLO 205): 29.4 µM (inactive) | GI50 (TK-10): 42.7 µM (inactive) | GI50 (U-251): 18.2 µM (inactive) | GI50 (HCT-116): 19.2 µM (inactive) | GI50 (UACC-62): 4.7 µM (inactive) | GI50 (NCI-H460): 19.5 µM (inactive) | GI50 (SNB-19): 26.7 µM (inactive) | GI50 (OVCAR-3): 29.5 µM (inactive) | GI50 (T47D): 16.6 µM (inactive) | GI50 (Hs-578T): 20.8 µM (inactive) | GI50 (NCI-H23): 16.3 µM (inactive) | GI50 (ACHN): 28.4 µM (inactive) | GI50 (SK-MEL-2): 14.6 µM (inactive) | GI50 (A549): 31 µM (inactive) | GI50 (MDA-MB-435): 15.7 µM (inactive) | GI50 (SNB-75): 20.5 µM (inactive) | GI50 (SN12C): 18.4 µM (inactive) | GI50 (HT-29): 22 µM (inactive) | GI50 (HL-60): 18.6 µM (inactive) | GI50 (786-0): 19.3 µM (inactive) | GI50 (HOP-92): 22 µM (inactive) | GI50 (HCT-15): 26.7 µM | GI50 (SW-620): > 10 µM (inactive) | GI50 (M14): 16.6 µM (inactive) | GI50 (DU-145): 24.5 µM (inactive) | GI50 (IGROV-1): > 10 µM (inactive) | GI50 (KM12): 31 µM (inactive) | GI50 (SF-295): 19.8 µM (inactive) | GI50 (NCI-H522): 20.3 µM (inactive) | GI50 (SR): 40.8 µM (inactive) | GI50 (UO-31): 20.7 µM (inactive) | GI50 (SF-539): 22 µM (inactive)

CC(C)(C)C(=O)C(C(=O)c1ccccc1)C(=O)C(C)(C)C
GI50 (EKVX): > 100 µM (inactive) | GI50 (MCF7): > 100 µM (inactive) | GI50 (MDA-N): > 100 µM (inactive) | GI50 (MOLT-4): > 100 µM (inactive) | GI50 (NCI-H226): > 100 µM (inactive) | GI50 (HCC 2998): > 100 µM (inactive) | GI50 (PC-3): > 100 µM (inactive) | GI50 (A498): > 100 µM (inactive) | GI50 (OVCAR-4): 64.7 µM (inactive) | GI50 (SK-OV-3): > 100 µM (inactive) | GI50 (CCRF-CEM): > 100 µM (inactive) | GI50 (K562): > 100 µM (inactive) | GI50 (CAKI-1): > 100 µM (inactive) | GI50 (OVCAR-8): 48.5 µM (inactive) | GI50 (SF-268): > 100 µM (inactive) | GI50 (LOX IMVI): > 100 µM (inactive) | GI50 (RPMI-8226): > 100 µM (inactive) | GI50 (SK-MEL-5): > 100 µM (inactive) | GI50 (Malme-3M): > 100 µM (inactive) | GI50 (HOP-62): > 100 µM (inactive) | GI50 (SK-MEL-28): > 100 µM (inactive) | GI50 (MDA-MB-231): 98.2 µM (inactive) | GI50 (NCI/ADR-RES): 30.5 µM (inactive) | GI50 (RXF 393): > 100 µM (inactive) | GI50 (UACC-257): > 100 µM (inactive) | GI50 (COLO 205): > 100 µM (inactive) | GI50 (TK-10): > 100 µM (inactive) | GI50 (U-251): > 100 µM (inactive) | GI50 (HCT-116): 56.1 µM (inactive) | GI50 (NCI-H460): > 100 µM (inactive) | GI50 (SNB-19): > 100 µM (inactive) | GI50 (OVCAR-3): > 100 µM (inactive) | GI50 (OVCAR-5): > 100 µM (inactive) | GI50 (T47D): > 100 µM (inactive) | GI50 (Hs-578T): > 100 µM (inactive) | GI50 (NCI-H23): > 100 µM (inactive) | GI50 (ACHN): > 100 µM (inactive) | GI50 (SK-MEL-2): > 100 µM (inactive) | GI50 (A549): > 100 µM (inactive) | GI50 (MDA-MB-435): > 100 µM (inactive) | GI50 (SNB-75): > 100 µM (inactive) | GI50 (SN12C): > 100 µM (inactive) | GI50 (HT-29): > 100 µM (inactive) | GI50 (HL-60): > 100 µM (inactive) | GI50 (786-0): > 100 µM (inactive) | GI50 (HOP-92): > 100 µM (inactive) | GI50 (HCT-15): > 100 µM | GI50 (SW-620): > 100 µM (inactive) | GI50 (M14): > 100 µM (inactive) | GI50 (DU-145): > 100 µM (inactive) | GI50 (IGROV-1): > 100 µM (inactive) | GI50 (KM12): > 100 µM (inactive) | GI50 (SF-295): > 100 µM (inactive) | GI50 (NCI-H522): > 100 µM (inactive) | GI50 (UO-31): > 100 µM (inactive) | GI50 (SF-539): > 100 µM (inactive)

NC1=C(N2CCCCC2)C(=O)NC2=N/C(=C\c3ccco3)C(=O)N21
GI50 (EKVX): > 100 µM (inactive) | GI50 (MDA-N): > 100 µM (inactive) | GI50 (MOLT-4): > 100 µM (inactive) | GI50 (NCI-H226): > 100 µM (inactive) | GI50 (A498): > 100 µM (inactive) | GI50 (OVCAR-4): > 100 µM (inactive) | GI50 (SK-OV-3): > 100 µM (inactive) | GI50 (CCRF-CEM): > 100 µM (inactive) | GI50 (K562): > 100 µM (inactive) | GI50 (CAKI-1): > 100 µM (inactive) | GI50 (OVCAR-8): > 100 µM (inactive) | GI50 (SF-268): > 100 µM (inactive) | GI50 (LOX IMVI): > 100 µM (inactive) | GI50 (RPMI-8226): > 100 µM (inactive) | GI50 (SK-MEL-5): > 100 µM (inactive) | GI50 (Malme-3M): > 100 µM (inactive) | GI50 (SK-MEL-28): > 100 µM (inactive) | GI50 (MDA-MB-231): > 100 µM (inactive) | GI50 (NCI/ADR-RES): > 100 µM (inactive) | GI50 (RXF 393): > 100 µM (inactive) | GI50 (UACC-257): > 100 µM (inactive) | GI50 (COLO 205): > 100 µM (inactive) | GI50 (TK-10): > 100 µM (inactive) | GI50 (U-251): > 100 µM (inactive) | GI50 (HCT-116): > 100 µM (inactive) | GI50 (SNB-19): > 100 µM (inactive) | GI50 (OVCAR-5): > 100 µM (inactive) | GI50 (T47D): > 100 µM (inactive) | GI50 (Hs-578T): > 100 µM (inactive) | GI50 (NCI-H23): > 100 µM (inactive) | GI50 (ACHN): > 100 µM (inactive) | GI50 (A549): > 100 µM (inactive) | GI50 (MDA-MB-435): > 100 µM (inactive) | GI50 (SNB-75): > 100 µM (inactive) | GI50 (SN12C): > 100 µM (inactive) | GI50 (HT-29): > 100 µM (inactive) | GI50 (HL-60): > 100 µM (inactive) | GI50 (786-0): > 100 µM (inactive) | GI50 (HOP-92): > 100 µM (inactive) | GI50 (HCT-15): > 100 µM | GI50 (SW-620): > 100 µM (inactive) | GI50 (M14): > 100 µM (inactive) | GI50 (DU-145): > 100 µM (inactive) | GI50 (IGROV-1): > 100 µM (inactive) | GI50 (KM12): > 100 µM (inactive) | GI50 (SF-295): > 100 µM (inactive) | GI50 (NCI-H522): > 100 µM (inactive) | GI50 (SR): 88.3 µM (inactive) | GI50 (UO-31): > 100 µM (inactive) | GI50 (SF-539): > 100 µM (inactive)
